# Test results reported in ChEMBL document CHEMBL1201862, “PubChem BioAssay data set” (2004).
#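 Five compound concentrations were applied to cells in 96-well plates for 48 hours; endpoints were derived by simple linear interpolation of the resulting dose-response curve. GI50 marks 50% less growth.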 Active and inactive are the calls of the source. Cut-off read from the data, not from the text of the source: active = GI50 up to about 1.1 µM and inactive = higher.
# Experiments:
# Experiment in all cases: DTP human tumour cell line panel, 48 h
# 786-0 = test system: 786-0
# A498 = test system: A498
# A549 = test system: A549
# ACHN = test system: ACHN
# CAKI-1 = test system: CAKI-1
# CCRF-CEM = test system: CCRF-CEM
# DLD-1 = test system: DLD-1
# DMS-114 = test system: DMS-114
# DMS-273 = test system: DMS-273
# EKVX = test system: EKVX
# HCC 2998 = test system: HCC 2998
# HCT-116 = test system: HCT-116
# HCT-15 = test system: HCT-15
# HL-60 = test system: HL-60
# HOP-62 = test system: HOP-62
# HOP-92 = test system: HOP-92
# HT-29 = test system: HT-29
# IGROV-1 = test system: IGROV-1
# K562 = test system: K562
# KM-20L2 = test system: KM-20L2
# KM12 = test system: KM12
# LOX IMVI = test system: LOX IMVI
# LXFL 529 = test system: LXFL 529
# M14 = test system: M14
# M19-MEL = test system: M19-MEL
# MOLT-4 = test system: MOLT-4
# Malme-3M = test system: Malme-3M
# NCI-H226 = test system: NCI-H226
# NCI-H23 = test system: NCI-H23
# NCI-H460 = test system: NCI-H460
# NCI-H522 = test system: NCI-H522
# OVCAR-3 = test system: OVCAR-3
# OVCAR-4 = test system: OVCAR-4
# OVCAR-5 = test system: OVCAR-5
# OVCAR-8 = test system: OVCAR-8
# RPMI-8226 = test system: RPMI-8226
# RXF 393 = test system: RXF 393
# RXF 631 = test system: RXF 631
# SF-268 = test system: SF-268
# SF-295 = test system: SF-295
# SF-539 = test system: SF-539
# SK-MEL-28 = test system: SK-MEL-28
# SK-MEL-2 = test system: SK-MEL-2
# SK-MEL-5 = test system: SK-MEL-5
# SN12C = test system: SN12C
# SNB-19 = test system: SNB-19
# SNB-75 = test system: SNB-75
# SR = test system: SR
# SW-620 = test system: SW-620
# TK-10 = test system: TK-10
# U-251 = test system: U-251
# UACC-257 = test system: UACC-257
# UACC-62 = test system: UACC-62
# UO-31 = test system: UO-31
# XF498 = test system: XF498
compound,measurement,setting,value
CC(=O)OCC1OC(n2cnc3c(I)nc(I)nc32)C(OC(C)=O)C1OC(C)=O (stereo not given),GI50,786-0,14.3 µM (inactive)
same,GI50,A498,22.2 µM (inactive)
same,GI50,A549,17.7 µM (inactive)
same,GI50,ACHN,10 µM (inactive)
same,GI50,CAKI-1,2.02 µM (inactive)
same,GI50,CCRF-CEM,3.8 µM (inactive)
same,GI50,DLD-1,10.8 µM (inactive)
same,GI50,DMS-114,4.21 µM (inactive)
same,GI50,DMS-273,6.84 µM (inactive)
same,GI50,EKVX,18.5 µM (inactive)
same,GI50,HCC 2998,5.21 µM (inactive)
same,GI50,HCT-116,4.91 µM (inactive)
same,GI50,HCT-15,4.58 µM
same,GI50,HL-60,2.47 µM (inactive)
same,GI50,HOP-62,18.8 µM (inactive)
same,GI50,HOP-92,3.18 µM (inactive)
same,GI50,HT-29,6.4 µM (inactive)
same,GI50,IGROV-1,6.35 µM (inactive)
same,GI50,K562,3.69 µM (inactive)
same,GI50,KM-20L2,17.6 µM (inactive)
same,GI50,KM12,4.48 µM (inactive)
same,GI50,LOX IMVI,14 µM (inactive)
same,GI50,LXFL 529,13.4 µM (inactive)
same,GI50,M14,17.2 µM (inactive)
same,GI50,M19-MEL,3.66 µM (inactive)
same,GI50,MOLT-4,8.13 µM (inactive)
same,GI50,Malme-3M,18.7 µM (inactive)
same,GI50,NCI-H226,19.4 µM (inactive)
same,GI50,NCI-H23,4.66 µM (inactive)
same,GI50,NCI-H460,17.7 µM (inactive)
same,GI50,NCI-H522,1.91 µM (inactive)
same,GI50,OVCAR-3,7.55 µM (inactive)
same,GI50,OVCAR-4,4.71 µM (inactive)
same,GI50,OVCAR-5,20.8 µM (inactive)
same,GI50,OVCAR-8,10.3 µM (inactive)
same,GI50,RPMI-8226,10.9 µM (inactive)
same,GI50,RXF 393,17.3 µM (inactive)
same,GI50,RXF 631,15.5 µM (inactive)
same,GI50,SF-268,13.4 µM (inactive)
same,GI50,SF-295,20.5 µM (inactive)
same,GI50,SF-539,16.1 µM (inactive)
same,GI50,SK-MEL-28,14.9 µM (inactive)
same,GI50,SK-MEL-2,17.1 µM (inactive)
same,GI50,SK-MEL-5,13.3 µM (inactive)
same,GI50,SN12C,13.5 µM (inactive)
same,GI50,SNB-19,12.5 µM (inactive)
same,GI50,SNB-75,15.1 µM (inactive)
same,GI50,SR,3.13 µM (inactive)
same,GI50,SW-620,13.8 µM (inactive)
same,GI50,TK-10,19.3 µM (inactive)
same,GI50,U-251,10.4 µM (inactive)
same,GI50,UACC-257,14.1 µM (inactive)
same,GI50,UACC-62,13.6 µM (inactive)
same,GI50,UO-31,17.7 µM (inactive)
same,GI50,XF498,20.9 µM (inactive)
